TGI and GI50 data for 9 compounds are collected here from PubChem BioAssay (NCI).

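Grown in 96-well plates, cells were treated for 48 hours with each compound at five concentrations. Insufficient inhibition: endpoint recorded as highest concentration tested. GI50 = concentration required for 50% inhibition of growth. TGI denotes the concentration required for complete inhibition of growth.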

What all share (experiment): NCI anticancer screen, dose series, 48 h
The subject of assay [1] is PC-3 prostate.
Assay [2] deals with SF-539 CNS.
Assay [3] has as its system M14 melanoma.
The test system of assay [4] is HCT-15 colon.
Assay [5] relates to MCF7 breast.
For assay [6], the system named is NCI-H460 lung.
Assay [7] has as its system KM12 colon.
Assay [8] deals with UACC-257 melanoma.
The test system of assay [9] is SNB-19 CNS.
For assay [10], the system named is MOLT-4 leukemia.

Take `CCOP1(=O)OCC2OC(n3cnc4c(N)ncnc43)C(O)C2O1` (configuration not stated): the TGI in assay [1], in assay [2], in assay [3], in assay [4], in [5] and in assay [6] was greater than 100 µM each time. Moreover, the TGI in [7], in assay [8], in [9] and in [10] was greater than 100 µM in each case.

Take `CC1(CCCC2(C)CCNC2=O)OCCO1` (configuration not stated): the TGI in assay [1], in [2], in assay [3], in assay [4], in assay [5] and in assay [6] was greater than 10 µM in each case. The TGI in [7], in assay [8], in [9] and in assay [10] was greater than 10 µM in each case.

With `O=C(Cn1ccnc1[N+](=O)[O-])NCCO`, the TGI in assay [1], in assay [2], in assay [3], in assay [4], in assay [5] and in [6] was greater than 100 µM each time. In addition, the TGI in assay [7], in assay [8] and in [9] was greater than 100 µM in each case.

With `CCc1cc(C(N)=O)ccc1-n1nc(C(C)C)c2c(-n3cnc(-c4cnn(C)c4)c3)ccnc21`, the GI50 in assay [1] is 3.61 µM; in assay [2], 3.08 µM; in [3] it was 1.22 µM; in assay [4], 2.9 µM; in [5], 0.443 µM; in [6], 0.566 µM. Besides, the GI50 in assay [7] is 0.463 µM; in [8], 2.9 µM; in [9], 3.3 µM; in assay [10], 0.955 µM. Besides, the TGI in [1], in assay [2], in [3], in [4], in assay [5] and in [6] was greater than 100 µM in each case. The TGI was 6.28 µM in assay [7], greater than 100 µM in [8], greater than 100 µM in assay [9] and greater than 100 µM in assay [10].

For the compound `COc1ccc(C(=O)/C=C/c2ccc(Cl)cc2)cc1S(N)(=O)=O`, the GI50 in [1] was 2.24 µM; in assay [2] it was 1.6 µM; in assay [3], 2.13 µM; in [4], 2.14 µM; in [5], 1.3 µM; in assay [6] it was 2.58 µM. Also, the GI50 in assay [7] is 1.73 µM; in assay [8], 12.2 µM; in assay [9], 3.1 µM; in assay [10], 2.93 µM. Also, the TGI in assay [1] was determined as 5.24 µM; in assay [2], 3.3 µM; in assay [3], 5.68 µM; in assay [4] it was 10.6 µM; in assay [5] it was 6.77 µM; in assay [6] it was 6.39 µM. Also, the TGI in [7] came out at 3.78 µM; in [8], 24.9 µM; in assay [9], 10.3 µM; in assay [10] it was 9.16 µM.

As to `CCN(CC)CCn1c(=N)n(CC(O)c2ccc(Cl)c(Cl)c2)c2ccccc21` (configuration not stated), the GI50 in assay [1] was 5.21 µM; in assay [2] it was 2.86 µM; in [3] it was 2.07 µM; in [4] it was 4.02 µM; in assay [5] it was 2.83 µM; in assay [6], 4.97 µM. The GI50 in [7] is 9.86 µM; in assay [9], 13.5 µM; in assay [10], 3.1 µM. The TGI was determined as 19.3 µM in [1]; 10.1 µM in assay [2]; 3.74 µM in assay [3]; 15.1 µM in assay [4]; 8.56 µM in [5]; 17.9 µM in assay [6]. The results for the TGI in assay [7], in assay [9] and in assay [10] were 22.2 µM, 28.8 µM and 13.1 µM, respectively.

Regarding `COc1ccc(C(=O)c2cc3c(N)c(C(=O)Nc4cccc(Cl)c4)sc3nc2C)cc1`, the GI50 is 1.48 µM in [1]; 0.995 µM in assay [2]; 1.08 µM in assay [3]; 1.32 µM in [4]; 1.25 µM in assay [5]; 1.12 µM in assay [6]. Further, the GI50 in [7] was 1.25 µM; in [8], 30.7 µM; in assay [9], 1.46 µM; in [10] it was 1.89 µM. Also, the TGI in [1] was greater than 33.3 µM; in assay [2], 3.2 µM; in assay [3], greater than 33.3 µM; in assay [4] it was greater than 33.3 µM; in assay [5] it was greater than 33.3 µM; in [6] it was greater than 33.3 µM. Further, the TGI in [7], in [8], in assay [9] and in assay [10] was greater than 33.3 µM each time.

In the case of `CC(C)Oc1cc(OCC(=O)O)cc(C(=O)N(CCC(N)=O)C(=O)Nc2ccc(C(=O)O)cc2OC(C)C)c1`, the GI50 in [1], in [2], in [3], in assay [4], in [5] and in assay [6] was greater than 100 µM throughout. Moreover, the GI50 in assay [7], in [8], in assay [9] and in [10] was greater than 100 µM throughout. The TGI in [1], in assay [2], in assay [3], in assay [4], in [5] and in [6] was greater than 100 µM each time. In addition, the TGI in assay [7], in assay [8], in assay [9] and in assay [10] was greater than 100 µM each time.

Turning to `COc1c2occc2c(OC)c2c(=O)c(S(=O)(=O)NC(=O)Nc3ccc(Cl)cc3)coc12`, the TGI in assay [1], in assay [2], in [3], in assay [4], in [5] and in assay [6] was greater than 10 µM throughout. For the same compound, the TGI in assay [7], in assay [8], in assay [9] and in [10] was greater than 10 µM in each case.
